Data on 40 molecules can be found in patent publication US20090239841A1, “Diaryl Ureas as CB1 Antagonists” (priority 2004, published 2009).

Where only a bound is given, the exact number is not on record here.

T1 sequence (P21554 whole entry): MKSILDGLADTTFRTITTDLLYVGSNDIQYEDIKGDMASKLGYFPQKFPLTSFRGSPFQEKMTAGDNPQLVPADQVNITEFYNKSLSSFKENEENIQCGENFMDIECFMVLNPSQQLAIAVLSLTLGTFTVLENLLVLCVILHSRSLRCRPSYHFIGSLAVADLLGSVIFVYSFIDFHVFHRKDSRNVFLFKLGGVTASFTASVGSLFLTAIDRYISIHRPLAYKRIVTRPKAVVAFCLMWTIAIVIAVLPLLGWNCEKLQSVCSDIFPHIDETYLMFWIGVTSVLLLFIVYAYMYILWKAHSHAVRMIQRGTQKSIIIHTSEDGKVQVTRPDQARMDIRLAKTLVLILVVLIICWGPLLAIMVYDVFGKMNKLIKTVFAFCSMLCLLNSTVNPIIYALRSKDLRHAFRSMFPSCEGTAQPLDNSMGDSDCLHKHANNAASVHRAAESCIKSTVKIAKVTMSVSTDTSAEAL

This assay has as its target T1, hCB1 (Homo sapiens, UniProt P21554).
T1 construct: made in house; host or cells: Sf9 insect cells (baculovirus), P2 membranes
The assay is described as follows: Agonist-induced GTP binding (GTPγ35S) assay at CB1, Example 8. The note with it: Table II; IC50 at CB1, GTP binding with 1 nM CP55,940; read-out: IC50. The format is biochemical. In short, it runs like this: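 Membranes from Sf9 cells co-expressing hCB1 and heterotrimeric G-protein (10 μg protein) in Tris pH 7.4 buffer with 5 μM GDP. Test compounds (10^−10–10^−5 M) competed against 1 nM CP55,940 with […] GTPγ35S, 60 min at room temperature. Filter-bound radioactivity by scintillation, expressed as percent above basal.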
Turning to `CCCOc1ccc(NC(=O)Nc2cccc(Cl)c2)cc1` [Compound 244, N-(3-chlorophenyl)-N′-(4-propoxyphenyl)urea], the IC50 (in general, the concentration that inhibits the measured activity by half) was < 2000 nM.

In the case of `CCCOc1ccc(NC(=O)Nc2ccc(Cl)cc2)cc1` [Compound 245, N-(4-chlorophenyl)-N′-(4-propoxyphenyl)urea], the IC50 is < 2000 nM. The same measure for `CCc1cccc(NC(=O)Nc2cccc(OC(C)C)c2)c1` [Compound 246, N-(3-ethylphenyl)-N′-(3-isopropoxyphenyl)urea]: < 2000 nM; for `CC(C)Oc1cccc(NC(=O)Nc2cccc(Cl)c2)c1` [Compound 247, N-(3-chlorophenyl)-N′-(3-isopropoxyphenyl)urea]: < 2000 nM; for `CC(C)Oc1cccc(NC(=O)Nc2ccc(Cl)cc2)c1` [Compound 248]: < 2000 nM. The same measure for `CCc1cccc(NC(=O)Nc2ccc(OC(C)C)cc2)c1` [Compound 249, N-(3-ethylphenyl)-N′-(4-isopropoxyphenyl)urea]: < 2000 nM. The same measure for `CCc1ccc(NC(=O)Nc2ccc(OC(C)C)cc2)cc1` [Compound 250, N-(4-ethylphenyl)-N′-(4-isopropoxyphenyl)urea]: < 2000 nM; for `CC(C)Oc1ccc(NC(=O)Nc2cccc(Cl)c2)cc1` [Compound 251, N-(3-chlorophenyl)-N′-(4-isopropoxyphenyl)urea]: < 2000 nM. For the molecule `CC(C)Oc1ccc(NC(=O)Nc2ccc(Cl)cc2)cc1` [Compound 252, N-(4-chlorophenyl)-N′-(4-isopropoxyphenyl)urea], the IC50 is < 2000 nM. The same measure for `CCc1cccc(NC(=O)Nc2cccc(OC(F)F)c2)c1` [Compound 253, N-[3-(difluoromethoxy)phenyl]-N′-(3-ethylphenyl)urea]: < 2000 nM. Under `CCc1ccc(NC(=O)Nc2cccc(OC(F)F)c2)cc1` [Compound 254, N-[3-(difluoromethoxy)phenyl]-N′-(4-ethylphenyl)urea] stands < 2000 nM. Turning to `O=C(Nc1cccc(Cl)c1)Nc1cccc(OC(F)F)c1` [Compound 255, N-(3-chlorophenyl)-N′-[3-(difluoromethoxy)phenyl]urea], the IC50 was < 2000 nM. Under `O=C(Nc1ccc(Cl)cc1)Nc1cccc(OC(F)F)c1` [Compound 256, N-(4-chlorophenyl)-N′-[3-(difluoromethoxy)phenyl]urea] stands < 2000 nM; under `O=C(Nc1ccc(Cl)cc1)Nc1ccc(OC(F)F)cc1` [Compound 257, N-(4-chlorophenyl)-N′-[4-(difluoromethoxy)phenyl]urea], < 2000 nM. For the molecule `COc1cccc(NC(=O)Nc2ccc(C(C)=O)cc2)c1` [Compound 258, N-(4-acetylphenyl)-N′-(3-methoxyphenyl)urea], the concentration for half-maximal inhibition (IC50) is < 2000 nM. Take `COc1ccc(NC(=O)Nc2cccc(C#N)c2)cc1` [Compound 259, N-(3-cyanophenyl)-N′-(4-methoxyphenyl)urea]: the concentration for half-maximal inhibition (IC50) was < 2000 nM. As to `COc1ccc(NC(=O)Nc2ccc(C(C)=O)cc2)cc1` [Compound 260, N-(4-acetylphenyl)-N′-(4-methoxyphenyl)urea], the IC50 is < 2000 nM. The same measure for `CCOc1cccc(NC(=O)Nc2ccc(C#N)cc2)c1` [Compound 261, N-(4-cyanophenyl)-N′-(3-ethoxyphenyl)urea]: < 2000 nM.

`CCOc1cccc(NC(=O)Nc2cccc(C#N)c2)c1` [Compound 262, N-(3-cyanophenyl)-N′-(3-ethoxyphenyl)urea]: the IC50 was < 2000 nM. Under `CCOc1cccc(NC(=O)Nc2ccc(C(C)=O)cc2)c1` [Compound 263, N-(4-acetylphenyl)-N′-(3-ethoxyphenyl)urea] stands < 2000 nM; under `CCOc1ccc(NC(=O)Nc2ccc(C#N)cc2)cc1` [Compound 264, N-(4-cyanophenyl)-N′-(4-ethoxyphenyl)urea], < 2000 nM. Under `CCOc1ccc(NC(=O)Nc2cccc(C#N)c2)cc1` [Compound 265, N-(3-cyanophenyl)-N′-(4-ethoxyphenyl)urea] stands < 2000 nM; under `CCOc1ccc(NC(=O)Nc2cccc(C(C)=O)c2)cc1` [Compound 266, N-(3-acetylphenyl)-N′-(4-ethoxyphenyl)urea], < 2000 nM; under `CCOc1ccc(NC(=O)Nc2ccc(C(C)=O)cc2)cc1` [Compound 267, N-(4-acetylphenyl)-N′-(4-ethoxyphenyl)urea], < 2000 nM. Under `COCc1ccc(NC(=O)Nc2cccc(C#N)c2)cc1` [Compound 269, N-(3-cyanophenyl)-N′-[4-(methoxymethyl)phenyl]urea] stands < 2000 nM. As to `COCc1ccc(NC(=O)Nc2cccc(C(C)=O)c2)cc1` [Compound 270, N-(3-acetylphenyl)-N′-[4-(methoxymethyl)phenyl]urea], the IC50 is < 2000 nM.

As to `COCc1ccc(NC(=O)Nc2ccc(C(C)=O)cc2)cc1` [Compound 271, N-(4-acetylphenyl)-N′-[4-(methoxymethyl)phenyl]urea], the IC50 is < 2000 nM. Under `CCCOc1ccc(NC(=O)Nc2ccc(C#N)cc2)cc1` [Compound 272, N-(4-cyanophenyl)-N′-(4-propoxyphenyl)urea] stands < 2000 nM; under `CCCOc1ccc(NC(=O)Nc2cccc(C#N)c2)cc1` [Compound 273, N-(3-cyanophenyl)-N′-(4-propoxyphenyl)urea], < 2000 nM; under `CCCOc1ccc(NC(=O)Nc2cccc(C(C)=O)c2)cc1` [Compound 274, N-(3-acetylphenyl)-N′-(4-propoxyphenyl)urea], < 2000 nM. Under `CCCOc1ccc(NC(=O)Nc2ccc(C(C)=O)cc2)cc1` [Compound 275, N-(4-acetylphenyl)-N′-(4-propoxyphenyl)urea] stands < 2000 nM; under `CC(C)Oc1cccc(NC(=O)Nc2cccc(C#N)c2)c1` [Compound 276, N-(3-cyanophenyl)-N′-(3-isopropoxyphenyl)urea], < 2000 nM.

Consider `CC(=O)c1cccc(NC(=O)Nc2cccc(OC(C)C)c2)c1` [Compound 277, N-(3-acetylphenyl)-N′-(3-isopropoxyphenyl)urea], for which the IC50 was < 2000 nM.

For the molecule `CC(=O)c1ccc(NC(=O)Nc2cccc(OC(C)C)c2)cc1` [Compound 278, N-(4-acetylphenyl)-N′-(3-isopropoxyphenyl)urea], the half-inhibitory concentration (IC50) is < 2000 nM. Under `CC(C)Oc1ccc(NC(=O)Nc2ccc(C#N)cc2)cc1` [Compound 279, N-(4-cyanophenyl)-N′-(4-isopropoxyphenyl)urea] stands < 2000 nM. Take `CC(C)Oc1ccc(NC(=O)Nc2cccc(C#N)c2)cc1` [Compound 280, N-(3-cyanophenyl)-N′-(4-isopropoxyphenyl)urea]: the IC50 is < 2000 nM.

Turning to `CC(=O)c1cccc(NC(=O)Nc2ccc(OC(C)C)cc2)c1` [Compound 281, N-(3-acetylphenyl)-N′-(4-isopropoxyphenyl)urea], the IC50 was < 2000 nM.

As for `CC(=O)c1ccc(NC(=O)Nc2ccc(OC(C)C)cc2)cc1` [Compound 282, N-(4-acetylphenyl)-N′-(4-isopropoxyphenyl)urea], the 50% inhibitory concentration (IC50) was < 2000 nM. The same measure for `N#Cc1ccc(NC(=O)Nc2cccc(OC(F)F)c2)cc1` [Compound 283, N-(4-cyanophenyl)-N′-[3-(difluoromethoxy)phenyl]urea]: < 2000 nM. Under `N#Cc1cccc(NC(=O)Nc2cccc(OC(F)F)c2)c1` [Compound 284, N-(3-cyanophenyl)-N′-[3-(difluoromethoxy)phenyl]urea] stands < 2000 nM.
